Measurements as given in ChEMBL document CHEMBL1129304, “11-Ketotigogenin cellobioside (pamaqueside): a potent cholesterol absorption inhibitor in the hamster” (J Med Chem, 1996).

Legend:
Format in all cases: ADME, organism-based, Canis lupus familiaris
[1] = Pharmacokinetic parameter half-life was determined in fed Beagle dogs after iv administration of 1.5 mg/kg; design: dose 1.5 mg/kg, route intravenous; settings: dog, in vivo
Canis familiaris = assay: Pharmacokinetic parameter AUC has been determined in fed Beagle dogs at a dose of 500 mg/kg; design: dose 500 mg/kg; settings: dog, in vivo
[2] = Pharmacokinetic parameter volume was determined in fed Beagle dogs after iv administration of 1.5 mg/kg; design: dose 1.5 mg/kg, route intravenous; settings: dog, in vivo, read-out: Volume
[3] = Bioavailability in fed Beagle dogs at a dose of 500 mg/kg; settings: dog, in vivo
[4] = Pharmacokinetic parameter clearance was determined in fed Beagle dogs after iv administration of 1.5 mg/kg; design: dose 1.5 mg/kg, route intravenous; settings: dog, in vivo
[5] = Pharmacokinetic parameter Cmax has been determined in fed Beagle dogs at a dose of 500 mg/kg; design: dose 500 mg/kg; settings: dog, in vivo

`C[C@@H]1CC[C@@]2(OC1)O[C@H]1C[C@H]3[C@@H]4CC[C@H]5C[C@@H](O[C@@H]6O[C@H](CO)[C@@H](O[C@@H]7O[C@H](CO)[C@@H](O)[C@H](O)[C@H]7O)[C@H](O)[C@H]6O)CC[C@]5(C)[C@H]4C(=O)C[C@]3(C)[C@H]1[C@@H]2C` [PAMAQUESIDE] showed a half-life [1] of 4.5 h, an AUC (Canis familiaris) of 2150 ng·h/mL and a Vd [2] of 0.5 L/kg. It also gave a bioavailability [3] of 0.04%, a clearance [4] of 1.4 mL/min/kg and a Cmax [5] of 110 ng/mL.
